Laboratory results: ChEMBL document CHEMBL1153972, “Solution studies on the complex of 4'-epiadriamycin-d-(CGATCG)2 followed by time-resolved fluorescence measurement, diffusion ordered spectroscopy and restrained molecular dynamics simulations” (Bioorg Med Chem, 2009)
The source made the active and inactive calls.

Tests used:
Type in all cases: nucleic-acid assay
Nucleic Acid [1] = assay: Binding affinity to DNA d-(CGATCG)2 at drug to DNA ratio of 2:1 by 2D NOESY experiment
Nucleic Acid [2] = assay: Binding affinity to DNA d-(CGATCG)2 at drug to DNA ratio of 2:1 by time resolved fluorescence measurements
Nucleic Acid [3] = assay: Binding affinity to DNA d-(CGATCG)2 by NMR study
Nucleic Acid [4] = assay: Binding affinity to DNA d-(CGATCG)2 assessed as rate of diffusion by diffusion ordered spectroscopy study

Measured: Activity

COc1cccc2c1C(=O)c1c(O)c3c(c(O)c1C2=O)C[C@@](O)(C(=O)CO)C[C@@H]3O[C@H]1C[C@H](N)[C@@H](O)[C@H](C)O1
active: Nucleic Acid [1] | Nucleic Acid [2] | Nucleic Acid [3] | Nucleic Acid [4]
